# ChEMBL document CHEMBL5154747, “Discovery of new carbonic anhydrase IX inhibitors as anticancer agents by toning the hydrophobic and hydrophilic rims of the active site to encounter the dual-tail approach” (Eur J Med Chem, 2022)
# How the values were obtained:
# Type in all cases: functional
# TK-10 = assay: Anticancer activity against human TK-10 cells assessed as cell growth inhibition incubated for 48 hrs by SRB assay
# HCT-116 = assay: Anticancer activity against human HCT-116 cells assessed as cell growth inhibition incubated for 48 hrs by SRB assay
# PC-3 = assay: Anticancer activity against human PC-3 cells assessed as cell growth inhibition incubated for 48 hrs by SRB assay
# COLO 205 = assay: Anticancer activity against human COLO 205 cells assessed as cell growth inhibition incubated for 48 hrs by SRB assay
# BT-549 = assay: Anticancer activity against human BT-549 cells assessed as cell growth inhibition incubated for 48 hrs by SRB assay
# HT-29 = assay: Anticancer activity against human HT-29 cells assessed as cell growth inhibition incubated for 48 hrs by SRB assay
# MDA-MB-468 = assay: Anticancer activity against human MDA-MB-468 cells assessed as cell growth inhibition incubated for 48 hrs by SRB assay
# M14 = assay: Anticancer activity against human M14 cells assessed as cell growth inhibition incubated for 48 hrs by SRB assay
# T47D = assay: Anticancer activity against human T47D cells assessed as cell growth inhibition incubated for 48 hrs by SRB assay
# SNB-75 = assay: Anticancer activity against human SNB-75 cells assessed as cell growth inhibition incubated for 48 hrs by SRB assay
# ACHN = assay: Anticancer activity against human ACHN cells assessed as cell growth inhibition incubated for 48 hrs by SRB assay
# UACC-62 = assay: Anticancer activity against human UACC-62 cells assessed as cell growth inhibition incubated for 48 hrs by SRB assay
# KM12 = assay: Anticancer activity against human KM12 cells assessed as cell growth inhibition incubated for 48 hrs by SRB assay
# OVCAR-8 = assay: Anticancer activity against human OVCAR-8 cells assessed as cell growth inhibition incubated for 48 hrs by SRB assay
# NCI-H23 = assay: Anticancer activity against human NCI-H23 cells assessed as cell growth inhibition incubated for 48 hrs by SRB assay
# HL-60(TB) = assay: Anticancer activity against human HL-60(TB) cells assessed as cell growth inhibition incubated for 48 hrs by SRB assay
# SF-295 = assay: Anticancer activity against human SF-295 cells assessed as cell growth inhibition incubated for 48 hrs by SRB assay
# SN12C = assay: Anticancer activity against human SN12C cells assessed as cell growth inhibition incubated for 48 hrs by SRB assay
# U-251 = assay: Anticancer activity against human U-251 cells assessed as cell growth inhibition incubated for 48 hrs by SRB assay
# RPMI-8226 = assay: Anticancer activity against human RPMI-8226 cells assessed as cell growth inhibition incubated for 48 hrs by SRB assay
# SK-MEL-5 = assay: Anticancer activity against human SK-MEL-5 cells assessed as cell growth inhibition incubated for 48 hrs by SRB assay
# Hs-578T = assay: Anticancer activity against human Hs-578T cells assessed as cell growth inhibition incubated for 48 hrs by SRB assay
# NCI-H226 = assay: Anticancer activity against human NCI-H226 cells assessed as cell growth inhibition incubated for 48 hrs by SRB assay
# UO-31 = assay: Anticancer activity against human UO-31 cells assessed as cell growth inhibition incubated for 48 hrs by SRB assay
# MCF7 = assay: Anticancer activity against human MCF7 cells assessed as cell growth inhibition incubated for 48 hrs by SRB assay
# OVCAR-4 = assay: Anticancer activity against human OVCAR-4 cells assessed as cell growth inhibition incubated for 48 hrs by SRB assay
# HOP-92 = assay: Anticancer activity against human HOP-92 cells assessed as cell growth inhibition incubated for 48 hrs by SRB assay
# 786-0 = assay: Anticancer activity against human 786-0 cells assessed as cell growth inhibition incubated for 48 hrs by SRB assay
# NCI-H322M = assay: Anticancer activity against human NCI-H322M cells assessed as cell growth inhibition incubated for 48 hrs by SRB assay
# SR = assay: Anticancer activity against human SR cells assessed as cell growth inhibition incubated for 48 hrs by SRB assay
# SF-539 = assay: Anticancer activity against human SF-539 cells assessed as cell growth inhibition incubated for 48 hrs by SRB assay
# CAKI-1 = assay: Anticancer activity against human CAKI-1 cells assessed as cell growth inhibition incubated for 48 hrs by SRB assay
# SNB-19 = assay: Anticancer activity against human SNB-19 cells assessed as cell growth inhibition incubated for 48 hrs by SRB assay
# CCRF-CEM = assay: Anticancer activity against human CCRF-CEM cells assessed as cell growth inhibition incubated for 48 hrs by SRB assay
# NCI-H522 = assay: Anticancer activity against human NCI-H522 cells assessed as cell growth inhibition incubated for 48 hrs by SRB assay
# HCT-15 = assay: Anticancer activity against human HCT-15 cells assessed as cell growth inhibition incubated for 48 hrs by SRB assay
# HCC 2998 = assay: Anticancer activity against human HCC 2998 cells assessed as cell growth inhibition incubated for 48 hrs by SRB assay
# SK-OV-3 = assay: Anticancer activity against human SK-OV-3 cells assessed as cell growth inhibition incubated for 48 hrs by SRB assay
# SF-268 = assay: Anticancer activity against human SF-268 cells assessed as cell growth inhibition incubated for 48 hrs by SRB assay
# OVCAR-5 = assay: Anticancer activity against human OVCAR-5 cells assessed as cell growth inhibition incubated for 48 hrs by SRB assay
# [1] = read-out: LC50 (the source's name)
compound,measurement,setting,value
NS(=O)(=O)c1ccc(Nc2nc(N/N=C/c3ccc(C(F)(F)F)cc3)nc(Nc3ccccc3)n2)cc1,GI50,TK-10,3.45 µM
same,CC50,TK-10; [1],33.7 µM
same,GI50,HCT-116,3.1 µM
same,LC50 (concentration killing 50% of cells),HCT-116,64 µM
same,GI50,PC-3,2.8 µM
same,CC50,PC-3; [1],78.5 µM
same,GI50,COLO 205,1.86 µM
same,CC50,COLO 205; [1],10.9 µM
same,GI50,BT-549,2.79 µM
same,CC50,BT-549; [1],37.2 µM
same,GI50,HT-29,2.44 µM
same,CC50,HT-29; [1],50.1 µM
same,GI50,MDA-MB-468,1.73 µM
same,CC50,MDA-MB-468; [1],8.63 µM
same,GI50,M14,2.51 µM
same,CC50,M14; [1],63.3 µM
same,GI50,T47D,2.48 µM
same,LC50,T47D,> 100 µM
same,GI50,SNB-75,2.05 µM
same,LC50 (concentration killing 50% of cells),SNB-75,37.5 µM
same,GI50,ACHN,2.68 µM
same,CC50,ACHN; [1],26.5 µM
same,GI50,UACC-62,2.35 µM
same,LC50,UACC-62,16.2 µM
same,GI50,KM12,2.38 µM
same,CC50,KM12; [1],24.8 µM
same,GI50,OVCAR-8,2.83 µM
same,LC50,OVCAR-8,35.5 µM
same,GI50,NCI-H23,1.95 µM
same,CC50,NCI-H23; [1],9.25 µM
same,GI50,HL-60(TB),3.59 µM
same,CC50,HL-60(TB); [1],> 100 µM
same,GI50,SF-295,1.92 µM
same,CC50,SF-295; [1],8.63 µM
same,GI50,SN12C,3 µM
same,LC50,SN12C,86.6 µM
same,GI50,U-251,2.69 µM
same,CC50,U-251; [1],71.4 µM
same,GI50,RPMI-8226,2.77 µM
same,LC50 (concentration killing 50% of cells),RPMI-8226,> 100 µM
same,GI50,SK-MEL-5,1.74 µM
same,LC50,SK-MEL-5,5.82 µM
same,GI50,Hs-578T,3.07 µM
same,LC50 (concentration killing 50% of cells),Hs-578T,> 100 µM
same,GI50,NCI-H226,2.45 µM
same,CC50,NCI-H226; [1],> 100 µM
same,GI50,UO-31,1.88 µM
same,CC50,UO-31; [1],15.7 µM
same,GI50,MCF7,2.18 µM
same,LC50,MCF7,64.8 µM
same,GI50,OVCAR-4,3.69 µM
same,LC50 (concentration killing 50% of cells),OVCAR-4,> 100 µM
same,GI50,HOP-92,2.38 µM
same,CC50,HOP-92; [1],39.8 µM
same,GI50,786-0,2.22 µM
same,CC50,786-0; [1],33.7 µM
same,GI50,NCI-H322M,3.31 µM
same,CC50,NCI-H322M; [1],36.1 µM
same,GI50,SR,3.07 µM
same,CC50,SR; [1],> 100 µM
same,GI50,SF-539,1.86 µM
same,CC50,SF-539; [1],9.61 µM
same,GI50,CAKI-1,3.05 µM
same,CC50,CAKI-1; [1],51.9 µM
same,GI50,SNB-19,3.46 µM
same,CC50,SNB-19; [1],40.6 µM
same,GI50,CCRF-CEM,3 µM
same,CC50,CCRF-CEM; [1],> 100 µM
same,GI50,NCI-H522,2.66 µM
same,CC50,NCI-H522; [1],87.1 µM
same,GI50,HCT-15,2.32 µM
same,CC50,HCT-15; [1],52 µM
same,GI50,HCC 2998,2.97 µM
same,CC50,HCC 2998; [1],46.4 µM
same,GI50,SK-OV-3,3.66 µM
same,LC50,SK-OV-3,> 100 µM
same,GI50,SF-268,3.51 µM
same,LC50 (concentration killing 50% of cells),SF-268,> 100 µM
same,GI50,OVCAR-5,2.96 µM
same,CC50,OVCAR-5; [1],39.9 µM
